Here are results for three compounds from ChEMBL document CHEMBL1155397, “Synthesis of amino acid conjugates to 2-imino-3-methylene-5-carboxypyrrolidine and 2-imino-3-methylene-6-carboxypiperidine” (2010).

What all share (format): functional
Settings in all cases: read-out: IZ

The test system of experiment [1] is Erwinia amylovora. As to the kind of experiment: Antibacterial activity against Erwinia amylovora at 1 ug after 12 hrs by agar diffusion assay.
For experiment [2], the system named is Erwinia amylovora. As to the kind of experiment: Antibacterial activity against Erwinia amylovora at 10 ug after 12 hrs by agar diffusion assay.
The test system of experiment [3] is Erwinia amylovora. As to the kind of experiment: Antibacterial activity against Erwinia amylovora at 100 ug after 12 hrs by agar diffusion assay.
Experiment [4] concerns Erwinia amylovora. The experiment is described as follows: Antibacterial activity against Erwinia amylovora at 0.1 ug after 12 hrs by agar diffusion assay. For orientation: A growth-free zone around the sample is the usual read-out of agar diffusion tests.

With `C=C1C[C@H](C(=O)N[C@H](C(=O)O)C(C)C)NC1=N`, the zone of inhibition at 1 µg/disc in experiment [1] came out at 6 mm. Further, in experiment [2], the zone of inhibition at 10 µg/disc stood at 10 mm. Also, the zone of inhibition at 100 µg/disc in experiment [3] amounted to 19 mm.

Turning to `C=C1C[C@@H](C(=O)N[C@@H](C(=O)O)C(C)C)NC1=N`, in experiment [3], the zone of inhibition at 100 µg/disc was determined as 10 mm.

Turning to `C=C1C[C@@H](C(=O)N[C@H](C(=O)O)C(C)C)NC1=N`, the zone of inhibition at 1 µg/disc in experiment [1] was 19 mm. For the same compound, the zone of inhibition at 0.1 µg/disc in experiment [4] was 10 mm.
